One experiment has as its target full-length human RORγt (Homo sapiens (Human), UniProt P51449). As to the kind of experiment: RORγt (full-length human) reporter assay, Conditions A. The settings on record: Conditions A; for IC50: read-out: RORγt (FL) Reporter Assay A, IC50; for inhibition at 6 µM: read-out: RORγt (FL) Reporter Assay A, % inhibition @ 6 μM. Type of experiment: cell-based. An excerpt:
RORγt (Full-Length Human) Reporter Assay:
Cells used in this assay were transiently co-transfected with three different plasmids, one expressing the GAL4-DNA binding domain (DBD)-RORγt fusion protein under control of a CMV promoter (NH2-Gal4-DBD:RORC-COOH in pCMV-BD, Stratagene #211342), and two reporter plasmids—the firefly luciferase reporter under control of a GAL4 promoter (pFR-Luc 2×GAL4) and Renilla luciferase reporter under control of CMV promoter (pRL-CMV, Promega # E2261). The full-length coding sequence was used for human RORγt, i.e., nucleotides 142-1635 of human RORγt, transcript variant 2, NCBI Accession: NM_001001523.1 (SEQ ID NO:1). HEK293T cells were plated at 35000 per well in 96-well plate in medium of MEM with 8.6% FBS. After 18-22 hours incubation, the transfection was carried out by using a PEI solution with 170.5 ng total DNA/well (50 ng pCMV-BD-ROR plus 20 ng of pFR-Luc reporter and 0.5 ng of pRL-CMV reporter plus 100 ng Carrier DNA (Clontech #630440) for each well). 4-6 hours after transfection, cells were treated with compounds for overnight in the medium with final concentration of FBS 1.1% and DMSO 0.1%. After overnight (16 to 20 hours) incubation, media were removed and cells were lysed with 20 μL 1× Passive Lysis Buffer (Promega) for 10-15 minutes. Luminescence was measured using a BMG LUMIstar OPTIMA plate reader, after addition of 75 μL/well firefly luciferase buffer, followed by 75 μL/well Renilla luciferase buffer. To calculate the effect of compounds on RORγt activity, firefly values were normalized against values of DMSO only and values of reference compound at saturating concentration, then further normalized against Renilla signals. IC50s were generated by plotting final Renilla normalized data against compound concentration and percent inhibition was calculated against DMSO control.

For experiment [1], the target named is human RORγt ligand binding domain (RORγt LBD) (Homo sapiens (Human), UniProt P51449). As to the kind of experiment: RORγt ThermoFluor® assay (thermal shift binding). The settings on record: read-out: ThermoFluor® Assay, Kd. An outline of the steps: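 Binding was inferred from thermal stabilisation (ΔTm) of the E. coli-expressed RORγt LBD (0.065 mg/mL), monitored by 1,8-ANS (60 μM) emission at 500 nm during a 1 °C/min ramp. Buffer was Hepes 100 mM pH 7.0 with NaCl, GSH and Tween-20.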
Sequence of human RORγt ligand binding domain (RORγt LBD) (P51449 other isoform, or with tags, fused parts or gaps): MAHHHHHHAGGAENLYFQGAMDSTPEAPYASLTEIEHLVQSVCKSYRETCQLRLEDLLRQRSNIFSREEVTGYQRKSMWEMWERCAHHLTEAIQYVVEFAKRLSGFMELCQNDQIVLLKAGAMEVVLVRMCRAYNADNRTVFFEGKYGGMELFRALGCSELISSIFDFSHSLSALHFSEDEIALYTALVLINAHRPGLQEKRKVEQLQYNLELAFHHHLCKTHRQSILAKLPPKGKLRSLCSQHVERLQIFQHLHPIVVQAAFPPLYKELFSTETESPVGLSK

Sequence of full-length human RORγt (P51449 other isoform, or with tags, fused parts or gaps): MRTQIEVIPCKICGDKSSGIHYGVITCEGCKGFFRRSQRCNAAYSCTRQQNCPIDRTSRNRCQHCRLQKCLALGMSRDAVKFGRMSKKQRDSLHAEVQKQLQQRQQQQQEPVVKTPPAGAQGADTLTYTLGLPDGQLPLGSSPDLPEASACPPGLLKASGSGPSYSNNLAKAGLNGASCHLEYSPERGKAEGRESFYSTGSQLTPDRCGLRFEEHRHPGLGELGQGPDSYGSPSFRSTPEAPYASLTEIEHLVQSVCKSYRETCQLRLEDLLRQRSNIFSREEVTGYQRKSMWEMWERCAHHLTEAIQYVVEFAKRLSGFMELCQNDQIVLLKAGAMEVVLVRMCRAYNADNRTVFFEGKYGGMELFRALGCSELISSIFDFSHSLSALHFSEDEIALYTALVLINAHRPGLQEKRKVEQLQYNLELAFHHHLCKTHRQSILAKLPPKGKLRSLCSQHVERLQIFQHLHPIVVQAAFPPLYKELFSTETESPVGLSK

Turning to `CC(C)(O)CNC(=O)c1nc(C(=O)N2CCC(F)CC2)c(-c2cnc(NC3CCC(F)(F)C3)cc2C(F)(F)F)s1` (stereo not drawn) [Example 20, 5-(6-((3,3-Difluorocyclopentyl)amino)-4-(trifluoromethyl)pyridin-3-yl)-4-(4-fluoropiperidine-1-carbonyl)-N-(2-hydroxy-2-methylpropyl)thiazole-2-carboxamide], on full-length human RORγt, the IC50 came to 0.2 µM and the inhibition at 6 µM was 110%. The Kd in experiment [1] came out at 0.052 µM.
Consider `CC(C)(O)CNC(=O)c1nc(C(=O)N2CCC(F)CC2)c(-c2cnc(NC3CCCCC3)c(OC(F)F)c2)s1` [Example 62, 5-(6-(Cyclohexylamino)-5-(difluoromethoxy)pyridin-3-yl)-4-(4-fluoropiperidine-1-carbonyl)-N-(2-hydroxy-2-methylpropyl)thiazole-2-carboxamide], for which, on full-length human RORγt, the IC50 worked out at 0.16 µM and the inhibition at 6 µM turned out to be 98%. In addition, the Kd in experiment [1] came out at 0.012 µM.
Take `CCc1cc(NC2CCCCC2)ncc1-c1sc(C(=O)NCC(C)(C)O)nc1C(=O)N1CCC(F)CC1` [Example 70, 5-(6-(cyclohexylamino)-4-ethylpyridin-3-yl)-4-(4-fluoropiperidine-1-carbonyl)-N-(2-hydroxy-2-methylpropyl)thiazole-2-carboxamide]: on full-length human RORγt, the IC50 was found to be 0.13 µM and the inhibition at 6 µM is 108%. Moreover, the Kd in experiment [1] was 0.036 µM.
Consider `CC(C)(O)CNC(=O)c1nc(C(=O)N2CCC(F)CC2)c(-c2cnc(NC3CCCCC3)cc2C(F)F)s1` [Example 14, 5-(6-(Cyclohexylamino)-4-(difluoromethyl)pyridin-3-yl)-4-(4-fluoropiperidine-1-carbonyl)-N-(2-hydroxy-2-methylpropyl)thiazole-2-carboxamide], for which, on full-length human RORγt, the IC50 came to 0.076 µM and the inhibition at 6 µM is 105%. The Kd in experiment [1] was determined as 0.033 µM.
Regarding `C[C@H]1CCCCN1C(=O)c1nc(C(=O)NCC(C)(C)O)sc1-c1cnc(NC2CCCCC2)c(C(F)(F)F)c1` [Example 4, (S)-5-(6-(Cyclohexylamino)-5-(trifluoromethyl)pyridin-3-yl)-N-(2-hydroxy-2-methylpropyl)-4-(2-methylpiperidine-1-carbonyl)thiazole-2-carboxamide], at full-length human RORγt, the IC50 is 0.009 µM and the inhibition at 6 µM came to 106%. Moreover, the Kd in experiment [1] worked out at 0.00098 µM.
On the same counts, the results for `Cc1c(-c2sc(C(=O)NCC(C)(C)O)nc2C(=O)N2CCC(F)CC2)cnc(NC2CCCCC2)c1F` [Example 66, 5-(6-(Cyclohexylamino)-5-fluoro-4-methylpyridin-3-yl)-4-(4-fluoropiperidine-1-carbonyl)-N-(2-hydroxy-2-methylpropyl)thiazole-2-carboxamide] are 0.15 µM, 85% and 0.041 µM.
Turning to `CC(C)(O)CNC(=O)c1nc(C(=O)N2CCC(F)CC2)c(-c2cnc(NC3CCCC(F)(F)C3)c(C(F)(F)F)c2)s1` (stereo not drawn) [Example 13, 5-(6-((3,3-Difluorocyclohexyl)amino)-5-(trifluoromethyl)pyridin-3-yl)-4-(4-fluoropiperidine-1-carbonyl)-N-(2-hydroxy-2-methylpropyl)thiazole-2-carboxamide], the “RORγt (FL) Reporter Assay A, % inhibition (value marked **)” value on full-length human RORγt (marked **: footnote not shown) is 99** %. Also, the IC50 on full-length human RORγt stood at 0.1 µM. Also, the Kd in experiment [1] was 0.037 µM.
For `CC(C)(O)CNC(=O)c1nc(C(=O)N2CCC(F)CC2)c(-c2cnc(NC3CC4(C3)CC(F)(F)C4)cc2C(F)(F)F)s1` [Example 22, 5-(6-((6,6-Difluorospiro[3.3]heptan-2-yl)amino)-4-(trifluoromethyl)pyridin-3-yl)-4-(4-fluoropiperidine-1-carbonyl)-N-(2-hydroxy-2-methylpropyl)thiazole-2-carboxamide], on full-length human RORγt, the IC50 came to 0.91 µM and the inhibition at 6 µM is 84%. Further, in experiment [1], the Kd turned out to be 0.44 µM.

(Values after patent US10975068B2, “6-aminopyridin-3-yl thiazoles as modulators of RORγT” (Janssen Pharmaceutica NV, priority 2016, dated 2021).)
